Results taken from patent US12577242B2, “Pyrrolopyridine and imidazopyridine antiviral compounds” (KATHOLIEKE UNIVERSITEIT LEUVEN, priority 2020, dated 2026).

Columns and labels:
[1] = system: Bovine viral diarrhea (BVD) virus; experiment: Anti-BVDV CPE inhibition assay in MDBK cells; settings: for SI (selectivity index, ratio of CC50 and EC50): CC50/EC50, MDBK cells, BVD virus
[2] = Cytotoxicity in MDBK cells (no BVD virus added); settings: bovine, MDBK cells (Madin-Darby bovine kidney), no virus added
[3] = system: classical swine fever virus (CSFV) strain Alfort 187; experiment: microbe, parasite or virus in culture; type: cell-based; settings: PK-15, in Sus scrofa, 48 h
BVDV type 2 strain 1373 = settings: 5 mg/kg i.v. 2x daily; for Animals showing signs of dehydration / Samples virus isolation positive for BVDV in total / Adverse side effects on serial complete blood cell counts or serum chemistry panels / Period in which leukopenia (<5000 leukocytes/μL) was seen / Adverse drug reactions on daily clinical monitoring / Clinical scores compared to calves receiving diluent only: 10 days; for Buffy coat samples virus isolation positive: Days 6-10, 20 samples per group; for Samples virus isolation positive for BVDV in total: all sample types and time points; for Nasal swab samples virus isolation positive: by Day 12, 28 samples per group; for Adverse side effects on serial complete blood cell counts or serum chemistry panels / Period in which leukopenia (<5000 leukocytes/μL) was seen / Adverse drug reactions on daily clinical monitoring: calves; for Adverse drug reactions on daily clinical monitoring: Day 0 to Day 28; for Clinical scores compared to calves receiving diluent only: composite of dehydration, appearance, appetite, diarrhea
BVDV type 1 strain SD1 = settings: 2 mg/kg i.v. 3x daily
[4] = system: MDBK cells (Madin-Darby bovine kidney); experiment: Cytotoxicity in MDBK cells (no BVD virus added); settings: MDBK cells, no virus, 50% toxic effects
[5] = Bovine viral diarrhea virus isolates and strains, MDBK, in Bos taurus, 96 h

## Cc1ccc2nc(Cn3ccc4nc(-c5cnn(C)c5C)nc-4c3)sc2c1 [CPD-1, 2-((2-(1,5-dimethyl-1H-pyrazol-4-yl)-5H-imidazo[4,5-c]pyridin-5-yl)methyl)-6-methylbenzo[d]thiazole]
[1]; [5]
  EC50: 13 ± 5 nM
[1]
  SI (selectivity index, ratio of CC50 and EC50): 17769
[2]
  CC50 at 4 days: 231000 nM
[3]
  EC50: 300 ± 100 nM

## Cc1c(-c2nc3ccn(Cc4cc(-c5cc(F)ccc5F)no4)cc-3n2)cnn1C [CPD-7, 3-(2,5-difluorophenyl)-5-((2-(1,5-dimethyl-1H-pyrazol-4-yl)-5H-imidazo[4,5-c]pyridin-5-yl)methyl)isoxazole]
[1]; [5]
  EC50: 53 ± 25 nM
[1]
  SI (selectivity index, ratio of CC50 and EC50): 4000
BVDV type 2 strain 1373
  Animals showing signs of dehydration: None
  Buffy coat samples virus isolation positive: 50%
  Samples virus isolation positive for BVDV in total: 28 samples
  Nasal swab samples virus isolation positive: 29%
  Adverse side effects on serial complete blood cell counts or serum chemistry panels: No evidence of adverse side effects
  Period in which leukopenia (<5000 leukocytes/μL) was seen: 6 to 12 days
  Adverse drug reactions on daily clinical monitoring: No signs of adverse drug reactions were observed
  Clinical scores compared to calves receiving diluent only: attenuated clinical scores
[2]
  CC50 at 4 days: 212000 nM
[3]
  EC50: 1300 ± 500 nM

## Cc1ccc2nc(Cn3ccc4nc(-c5cn(C)nc5C)nc-4c3)sc2c1 [CPD-10, 2-((2-(1,3-dimethyl-1H-pyrazol-4-yl)-5H-imidazo[4,5-c]pyridin-5-yl)methyl)-6-methylbenzo[d]thiazole]
[1]; [5]
  EC50: 80 ± 32 nM
[1]
  SI (selectivity index, ratio of CC50 and EC50): 2888
BVDV type 2 strain 1373
  Animals showing signs of dehydration: None
  Buffy coat samples virus isolation positive: 55%
  Samples virus isolation positive for BVDV in total: 32 samples
  Nasal swab samples virus isolation positive: 43%
  Adverse side effects on serial complete blood cell counts or serum chemistry panels: No evidence of adverse side effects
  Period in which leukopenia (<5000 leukocytes/μL) was seen: 6 to 8 days
  Adverse drug reactions on daily clinical monitoring: No signs of adverse drug reactions were observed
  Clinical scores compared to calves receiving diluent only: attenuated clinical scores
[2]
  CC50 at 4 days: 231000 nM
[3]
  EC50: 4300 ± 1900 nM

## Cc1nc(Cn2ccc3nc(-c4ccccc4F)nc-3c2)sc1-c1ccccc1 [CPD-29, 2-((2-(2-fluorophenyl)-5H-imidazo[4,5-c]pyridin-5-yl)methyl)-4-methyl-5-phenylthiazole]
[1]; [5]
  EC50: 257 ± 107 nM
[1]
  SI (selectivity index, ratio of CC50 and EC50): >195
[2]
  CC50 at 4 days: > 50000 nM
[3]
  EC50: 2800 ± 1400 nM

## Fc1ccc(OC(F)(F)F)cc1-c1nc2ccn(Cn3nnc4ccccc43)cc-2n1 [CPD-40, 1-((2-(2-fluoro-5-(trifluoromethoxy)phenyl)-5H-imidazo[4,5-c]pyridin-5-yl)methyl)-1H-benzo[d][1,2,3]triazole]
[1]; [5]
  EC50: 89 ± 18 nM
[1]
  SI (selectivity index, ratio of CC50 and EC50): 539
[2]
  CC50 at 4 days: 48000 nM
[3]
  EC50: 5900 nM

## Fc1ccccc1-c1cc2ccn(Cn3nnc4ccccc43)cc-2n1 [Compound I, 1-{[2-(2-fluorophenyl)-6H-pyrrolo[2,3-c]pyridin-6-yl]methyl}-1H-benzotriazole]
[1]; [5]
  EC50: 9 ± 8 nM
[1]
  SI (selectivity index, ratio of CC50 and EC50): 2444
BVDV type 1 strain SD1; 7 days, Day 14
  Antibody titre of seroconverted calf on Day 14: 16
BVDV type 1 strain SD1; 7 days, Day 14 post challenge
  Calves seroconverted (anti-BVDV neutralizing antibodies) by Day 14: 1 out of 5
BVDV type 1 strain SD1; 7 days, Day 28
  Average anti-BVDV neutralising antibody titre on Day 28: 64
BVDV type 1 strain SD1; calves, 7 days, Day 0, 7, 14, 21, 28
  Haematology and clinical chemistry versus control group: did not reveal any difference between both treatment groups
BVDV type 1 strain SD1; calves, 7 days, Day 0 to Day 28
  Adverse drug reactions on daily clinical monitoring: No signs of adverse drug reactions were observed
BVDV type 1 strain SD1; calves, Day 0 to Day 6
  BVDV virus isolation from buffy coat samples during treatment: could not be detected
[2]
  CC50 at 4 days: 22000 nM

## OCc1ccccc1-c1cc2ccn(Cn3nnc4ccccc43)cc-2n1 [Compound V, [2-(6-((1H-Benzotriazol)-1-yl)methyl-6H-pyrrolo[2,3-c]pyridin-2-yl)-phenyl]-methanol]
[1]; BVD virus approx. 100 TCID50, MDBK cells, four days, 50% inhibition of CPE
  EC50: 81 ± 1 nM
[4]
  CC50: > 50000 nM

## Cc1ccc2nc(Cn3ccc4nc(-c5ccccc5CO)cc-4c3)[nH]c2c1 [XXXIII, [2-[5-[(6-methyl-1H-benzimidazol-2-yl)methyl]pyrrolo[3,2-c]pyridin-2-yl]phenyl]methanol]
[1]; [5]
  EC50: 1900 ± 102 nM
[1]
  SI (selectivity index, ratio of CC50 and EC50): >26
[2]
  CC50 at 4 days: > 50000 nM
